Assay results from ChEMBL document CHEMBL5230081, “Battle against Vancomycin-Resistant Bacteria: Recent Developments in Chemical Strategies” (J Med Chem, 2019).
Converted amounts (≈) assume the structure as drawn. Where a SMILES comes first, the peptide text is derived from it. [ ]: non-standard residue; d: D form. ξ: configuration not given here. ξW = NC(Cc1c[nH]c2ccccc12)C(=O)O

Tests used:
Enterococcus faecalis [1] = assay: Antimicrobial activity against Vancomycin - resistant Enterococcus faecalis assessed as inhibition of bacterial growth; type: functional
Enterococcus faecium [2] = assay: Antimicrobial activity against Vancomycin-resistant (Van A) Enterococcus faecium ATCC 51559 assessed as reduction in microbial growth; type: functional
[3] = Binding affinity to D-Ala-D-Lac
Enterococcus faecium [4] = assay: Antimicrobial activity against Vancomycin-resistant Enterococcus faecium assessed as reduction in microbial growth; type: functional
Staphylococcus aureus [5] = assay: Antibacterial activity against Vancomycin-intermediate Staphylococcus aureus NRS1 assessed as bacterial growth inhibition; type: functional
Staphylococcus aureus [6] = assay: Antimicrobial activity against Vancomycin-resistant Staphylococcus aureus incubated for 20 hrs by broth dilution method; type: functional
Acinetobacter baumannii = assay: Antibacterial activity against Acinetobacter baumannii R4942 assessed as reduction in bacterial growth by broth microdilution method; type: functional
Enterobacter cloacae = assay: Antibacterial activity against Enterobacter cloacae NDM-1 assessed as reduction in bacterial growth by broth microdilution method; type: functional
Enterococcus faecium [7] = assay: Antimicrobial activity against Vancomycin-resistant (Van M) Enterococcus faecium ATCC 51559 assessed as reduction in microbial growth; type: functional
Staphylococcus aureus [8] = assay: Antibacterial activity against Vancomycin-intermediate Staphylococcus aureus Mu50 assessed as bacterial growth inhibition; type: functional
Staphylococcus aureus [9] = assay: Antibacterial activity against Vancomycin-intermediate Staphylococcus aureus 3797 assessed as inhibition in bacterial growth; type: functional
[10] = Binding affinity to D-Ala-D-Ala
Enterococcus faecalis [11] = assay: Antimicrobial activity against Vancomycin-sensitive Enterococcus faecalis ATCC 29212 assessed as reduction in microbial growth; type: functional
Pseudomonas aeruginosa [12] = assay: Antibacterial activity against extensively drug resitant Pseudomonas aeruginosa; type: functional, organism-based
Staphylococcus aureus [13] = assay: Antibacterial activity against Vancomycin-resistant Staphylococcus aureus assessed as bacterial growth inhibition measured after 48 hrs by microbroth dilution method; type: functional
Staphylococcus aureus [14] = assay: Antibacterial activity against Vancomycin-intermediate Staphylococcus aureus assessed as bacterial growth inhibition measured after 24 hrs by microbroth dilution method; type: functional
Pseudomonas aeruginosa [15] = assay: Antibacterial activity against Pseudomonas aeruginosa ATCC 27853 assessed as bacterial growth inhibition measured after 24 hrs by microbroth dilution method; type: functional
Pseudomonas aeruginosa [16] = assay: Synergistic antibacterial activity against multidrug-resistant Pseudomonas aeruginosa ATCC 27853 assessed as reduction in bacterial viability after 12 hrs in presence of 1/2 MIC of vancomycin; type: functional
[17] = Enterococcus faecium, ATCC 51559, read-out: MIC
[18] = Enterococcus faecium, read-out: MIC

CCCCCCCCCCN[C@@]1(C)C[C@H](O[C@H]2[C@H](Oc3c4cc5cc3Oc3ccc(cc3Cl)[C@@H](O)[C@@H](NC(=O)[C@@H](CC(C)C)NC)C(=O)N[C@@H](CC(N)=O)C(=O)N[C@H]5C(=O)N[C@H]3C(=O)N[C@H](C(=O)N[C@H](C(=O)ONCCCNC(=O)[C@H](O)[C@@H](O)[C@H](O[C@@H]5O[C@H](CO)[C@H](O)[C@H](O)[C@H]5O)[C@H](O)CO)c5cc(O)cc(O)c5-c5cc3ccc5O)[C@H](O)c3ccc(c(Cl)c3)O4)O[C@H](CO)[C@@H](O)[C@@H]2O)O[C@@H](C)[C@H]1O
MIC (Enterococcus faecalis [1]): 0.7 µM (≈ 1.4 µg/mL) | MIC (Enterococcus faecium [2]): 1 µM | MIC (Enterococcus faecium [2]; [17]): 0.7 µM | Ka [3]: 6 10^4/M

CN[C@H](CC(C)C)C(=O)N[C@H]1C(=O)N[C@@H](CC(N)=O)C(=O)N[C@H]2C(=O)N[C@H]3C(=O)N[C@H](C(=O)N[C@H](C(=O)O)c4cc(O)cc(O)c4-c4cc3ccc4O)[C@H](O)c3ccc(c(Cl)c3)Oc3cc2cc(c3O[C@@H]2O[C@H](CO)[C@@H](O)[C@H](O)[C@H]2O[C@H]2C[C@](C)(NCc3cccc(OCCSSCCOc4cccc(CN[C@@]5(C)C[C@H](O[C@H]6[C@H](Oc7c8cc9cc7Oc7ccc(cc7Cl)[C@@H](O)[C@@H](NC(=O)[C@@H](CC(C)C)NC)C(=O)N[C@@H](CC(N)=O)C(=O)N[C@H]9C(=O)N[C@H]7C(=O)N[C@H](C(=O)N[C@H](C(=O)O)c9cc(O)cc(O)c9-c9cc7ccc9O)[C@H](O)c7ccc(c(Cl)c7)O8)O[C@H](CO)[C@@H](O)[C@@H]6O)O[C@@H](C)[C@H]5O)c4)c3)[C@H](O)[C@H](C)O2)Oc2ccc(cc2Cl)[C@H]1O
MIC (Enterococcus faecium [4]; [18]): 1 µg/mL | MIC (Staphylococcus aureus [5]): 8 µg/mL

CCCCCCCC[N+](C)(C)CCCNC(=O)[C@H]1NC(=O)[C@H]2NC(=O)[C@H](NC(=O)[C@@H]3NC(=O)[C@H](CC(N)=O)NC(=O)[C@H](NC(=O)[C@@H](CC(C)C)NC)[C@H](O)c4ccc(c(Cl)c4)Oc4cc3cc(c4O[C@@H]3O[C@H](CO)[C@@H](O)[C@H](O)[C@H]3O[C@H]3C[C@](C)(N)[C@H](O)[C@H](C)O3)Oc3ccc(cc3Cl)[C@H]2O)c2ccc(O)c(c2)-c2c(O)cc(O)cc21
MIC (Staphylococcus aureus [6]): 0.3 µM | MIC (Enterococcus faecium [2]; [17]): 12 µM | MIC (Staphylococcus aureus [5]): 0.4 µM | MIC (Acinetobacter baumannii): 7 µM | MIC (Enterobacter cloacae): > 100 µM

CN[C@H](CC(C)C)C(=O)N[C@H]1C(=O)N[C@@H](CC(N)=O)C(=O)N[C@H]2C(=O)N[C@H]3C(=O)N[C@H](C(=O)N[C@H](C(=O)O)c4cc(O)c(CNCCO[C@@H]5O[C@H](CO)[C@H](O)[C@H](O)[C@H]5O)c(O)c4-c4cc3ccc4O)[C@H](O)c3ccc(c(Cl)c3)Oc3cc2cc(c3O[C@@H]2O[C@H](CO)[C@@H](O)[C@H](O)[C@H]2O[C@H]2C[C@](C)(NCc3ccc(-c4ccc(C(F)(F)F)cc4)cc3)[C@H](O)[C@H](C)O2)Oc2ccc(cc2Cl)[C@H]1O
MIC (Enterococcus faecium [2]): ≤ 0.06 µg/mL | MIC (Enterococcus faecium [2]; [17]): 1 µg/mL | MIC (Enterococcus faecium [7]): 2 µg/mL | MIC (Staphylococcus aureus [8]): 0.25 µg/mL (≈ 0.13 µM)

CCCCCCCCCCC(=O)N[C@@H](CCCCN)C(=O)N[C@@H](CCCCN)C(=O)NC(CCCCNC(=O)[C@H]1NC(=O)[C@H]2NC(=O)[C@H](NC(=O)[C@@H]3NC(=O)[C@H](CC(N)=O)NC(=O)[C@H](NC(=O)[C@@H](CC(C)C)NC)[C@H](O)c4ccc(c(Cl)c4)Oc4cc3cc(c4O[C@@H]3O[C@H](CO)[C@@H](O)[C@H](O)[C@H]3O[C@H]3C[C@](C)(N)[C@H](O)[C@H](C)O3)Oc3ccc(cc3Cl)[C@H]2O)c2ccc(O)c(c2)-c2c(O)cc(O)cc21)C(N)=O (some centres not stated)
MIC (Enterococcus faecium [2]; [17]): 2 µg/mL | MIC (Staphylococcus aureus [5]): 0.03 µg/mL | MIC (Staphylococcus aureus [9]): 0.06 µg/mL

CN[C@H](CC(C)C)C(=O)N[C@H]1C(=O)N[C@@H](CC(N)=O)C(=O)N[C@H]2C(=O)N[C@H]3C(=O)N[C@H](C(=O)N[C@H](C(=O)O)c4cc(O)c(CN[C@H]5C(O)O[C@H](CO)[C@H](O)[C@@H]5O)c(O)c4-c4cc3ccc4O)[C@H](O)c3ccc(c(Cl)c3)Oc3cc2cc(c3O[C@@H]2O[C@H](CO)[C@@H](O)[C@H](O)[C@H]2O[C@H]2C[C@](C)(NCc3ccc(-c4ccc(Cl)cc4)cc3)[C@H](O)[C@H](C)O2)Oc2ccc(cc2Cl)[C@H]1O (some centres not stated)
MIC (Enterococcus faecium [2]): 0.25 µg/mL | MIC (Enterococcus faecium [2]; [17]): 2 µg/mL | MIC (Enterococcus faecium [7]): 4 µg/mL | MIC (Staphylococcus aureus [8]): 0.12 µg/mL (≈ 0.0652 µM)

CN[C@H](CC(C)C)C(=O)N[C@H]1C(=O)N[C@@H](CC(N)=O)C(=O)N[C@H]2C(=N)N[C@H]3C(=O)N[C@H](C(=O)N[C@H](C(=O)O)c4cc(O)cc(O)c4-c4cc3ccc4O)[C@H](O)c3ccc(c(Cl)c3)Oc3cc2cc(c3O)Oc2ccc(cc2Cl)[C@H]1O
Ka [10]: 7.3 10^4/M | Ka [3]: 6.9 10^4/M

CN[C@H](CC(C)C)C(=O)N[C@H]1C(=O)N[C@@H](CC(N)=O)C(=O)N[C@H]2C(=S)N[C@H]3C(=O)N[C@H](C(=O)N[C@H](C(=O)O)c4cc(O)cc(O)c4-c4cc3ccc4O)[C@H](O)c3ccc(c(Cl)c3)Oc3cc2cc(c3O)Oc2ccc(cc2Cl)[C@H]1O
Ka [10]: 1.7 10^2/M | Ka [3]: 1.1 10^1/M

CCCCCCCC[n+]1ccc(CN[C@@]2(C)C[C@H](O[C@H]3[C@H](Oc4c5cc6cc4Oc4ccc(cc4Cl)[C@@H](O)[C@@H](NC(=O)[C@@H](CC(C)C)NC)C(=O)N[C@@H](CC(N)=O)C(=O)N[C@H]6C(=O)N[C@H]4C(=O)N[C@H](C(=O)N[C@H](C(=O)NC(=O)[C@H](O)[C@@H](O)[C@H](O[C@@H]6O[C@H](CO)[C@@H](O)[C@H](O)[C@H]6O)[C@H](O)CO)c6cc(O)cc(O)c6-c6cc4ccc6O)[C@H](O)c4ccc(c(Cl)c4)O5)O[C@H](CO)[C@@H](O)[C@@H]3O)O[C@@H](C)[C@H]2O)cc1
MIC (Enterococcus faecium [4]; [18]): 0.09 µM | MIC (Enterococcus faecalis [11]): 0.1 µM | MIC (Enterococcus faecium [2]; [17]): 0.09 µM | MIC (Staphylococcus aureus [5]): 0.1 µM | Ka [3]: 5.7 10^4/M

CN[C@H](CC(C)C)C(=O)N[C@H]1C(=O)N[C@@H](CC(N)=O)C(=O)N[C@H]2C(=O)N[C@H]3C(=O)N[C@H](C(=O)N[C@H](C(=O)NCCC[N+](C)(C)C)c4cc(O)cc(O)c4-c4cc3ccc4O)[C@H](O)c3ccc(c(Cl)c3)Oc3cc2cc(c3O[C@@H]2O[C@H](CO)[C@@H](O)[C@H](O)[C@H]2O[C@H]2C[C@](C)(NCc3ccc(-c4ccc(Cl)cc4)cc3)[C@H](O)[C@H](C)O2)Oc2ccc(cc2Cl)[C@H]1O
MIC (Enterococcus faecium [4]): 0.01 µg/mL | MIC (Enterococcus faecium [2]; [17]): 0.01 µg/mL

POLYMYXIN B
MIC (Pseudomonas aeruginosa [12]): 2 µg/mL

H-IRIKIRIK-OH
MIC (Staphylococcus aureus [13]): 8 µg/mL | MIC (Staphylococcus aureus [14]): 8 µg/mL

CN[C@H](CC(C)C)C(=O)N[C@H]1C(=O)N[C@@H](CC(N)=O)C(=O)N[C@H]2CN[C@H]3C(=O)N[C@H](C(=O)N[C@H](C(=O)O)c4cc(O)cc(O)c4-c4cc3ccc4O)[C@H](O)c3ccc(c(Cl)c3)Oc3cc2cc(c3O)Oc2ccc(cc2Cl)[C@H]1O
Ka [10]: 4.8 10^3/M | Ka [3]: 5.2 10^3/M

N=C(N)NCCC[C@H](NC(=O)[C@H](CCCNC(=N)N)NC(=O)[C@H](Cc1c[nH]c2ccccc12)NC(=O)[C@H](Cc1c[nH]c2ccccc12)NC(=O)[C@H](CCCNC(=N)N)NC(=O)[C@H](CCCNC(=N)N)NC(=O)[C@H](Cc1c[nH]c2ccccc12)NC(=O)C(Cc1c[nH]c2ccccc12)NC(=O)[C@H](CCCNC(=N)N)NC(=O)[C@H](Cc1c[nH]c2ccccc12)NC(=O)[C@H](Cc1c[nH]c2ccccc12)NC(=O)[C@@H](N)CCCNC(=N)N)C(=O)O (some centres not stated) (H-RWWR[ξW]WRRWWRR-OH)
MIC (Staphylococcus aureus [13]): 1 µg/mL (≈ 0.483 µM) | MIC (Staphylococcus aureus [14]): 4 µg/mL (≈ 1.93 µM)

CCCCCCCCN(CCCNC(=O)[C@H]1NC(=O)[C@H]2NC(=O)[C@H](NC(=O)[C@@H]3NC(=O)[C@H](CC(N)=O)NC(=O)[C@H](NC(=O)[C@@H](CC(C)C)NC)[C@H](O)c4ccc(c(Cl)c4)Oc4cc3cc(c4O)Oc3ccc(cc3Cl)[C@H]2O)c2ccc(O)c(c2)-c2c(O)cc(O)cc21)CCCNC(=O)[C@H]1NC(=O)[C@H]2NC(=O)[C@H](NC(=O)[C@@H]3NC(=O)[C@H](CC(N)=O)NC(=O)[C@H](NC(=O)[C@@H](CC(C)C)NC)[C@H](O)c4ccc(c(Cl)c4)Oc4cc3cc(c4O)Oc3ccc(cc3Cl)[C@H]2O)c2ccc(O)c(c2)-c2c(O)cc(O)cc21
MIC (Enterococcus faecium [2]; [17]): 2.5 µM | MIC (Staphylococcus aureus [9]): 0.6 µM | Ka [10]: 1 10^5/M | Ka [3]: 5.7 10^3/M

CN[C@H](CC(C)C)C(=O)N[C@H]1C(=O)N[C@@H](CC(N)=O)C(=O)N[C@H]2C(=O)N[C@H]3C(=O)N[C@H](C(=O)N[C@H](C(=O)NC[C@H]4OB(O)c5ccccc54)c4cc(O)cc(O)c4-c4cc3ccc4O)[C@H](O)c3ccc(c(Cl)c3)Oc3cc2cc(c3O[C@@H]2O[C@H](CO)[C@@H](O)[C@H](O)[C@H]2O[C@H]2C[C@](C)(N)[C@H](O)[C@H](C)O2)Oc2ccc(cc2Cl)[C@H]1O
MIC (Staphylococcus aureus [9]): 1 µM

CC(=O)N[C@@H]1[C@H](Oc2c3cc4cc2Oc2ccc(cc2Cl)[C@@H](O[C@@H]2O[C@@H](CO)[C@@H](O)[C@H](O)[C@@H]2NC(C)=O)[C@@H]2NC(=O)[C@H](NC(=O)[C@@H]4NC(=O)[C@H]4NC(=O)[C@@H](Cc5ccc(c(Cl)c5)O3)NC(=O)[C@H](N)c3ccc(O)c(c3)Oc3cc(O)cc4c3)c3ccc(O)c(c3)-c3c(O[C@H]4O[C@H](CO)[C@@H](O)[C@@H](O)[C@@H]4O)cc(O)cc3[C@@H](C(=O)O)NC2=O)O[C@@H](CO)[C@@H](O)[C@@H]1O
MIC (Pseudomonas aeruginosa [15]): 256 µg/mL (≈ 145 µM) | fractional inhibitory concentration index (FICI) (Pseudomonas aeruginosa [16]): <0.5
